Reference: PMC10143848 (Viruses, 2023)

Key:
HSV-1 KOS [1] = tested on: HSV-1 KOS
Canine Coronavirus [2] = assay: microbe, parasite or virus in culture; conditions: Alphacoronavirus 1, CRFK, 24 h
RSV A2 [3] = assay: Immunofluorescence, RSV gF expression in infected cells; type: cell-based, Human RSV; conditions: RSV A2 moi 1, 25 μg/mL of A18, 24 h p.i.
IL-6, IL-8, and TNF-α [4] = assay: Cytokine determination by ELISA in TLR2/6 and TLR3 ligand-stimulated cells; type: cell-based; conditions: A549, Hep-2, J774A.1; TLR2/6 and TLR3 ligands for 6 h / 8 h (Fig. S3); A18 25, BAY 11-7085 10
[5] = tested on: airway hyperreactivity (AHR); parameters: method as in ref 14 = [14]; conditions: i.p. (6 mg/kg/day) and i.n. (3 mg/kg/day), mouse models of steroid-resistant and severe asthma; cited from earlier work
RSV line 19 and A2 = assay: Pulmonary RSV infection in mouse model; type: in vivo, Balb/C mice
[6] = tested on: IL-6, IL-4, IL-17A, IFN-γ; assay: Pulmonary cytokines qRT-PCR in RSV-infected mice; type: in vivo, Balb/C mice; conditions: RSV-infected mice treated with A18, day 8 p.i.
SARS-CoV-2 [7] = assay: Adsorption and penetration assay, SARS-CoV-2; type: cell-based; conditions: calu-3 cells
HSV-1 KOS [8] = assay: microbe, parasite or virus in culture; conditions: Human alphaherpesvirus 1, HCLE, 24 h
HSV-1 Field [9] = tested on: HSV-1 Field
RSV A2 [10] = assay: Adsorption and penetration assay, RSV A2; type: cell-based, Human RSV; conditions: A549 cells
HSV-1 Field [11] = assay: microbe, parasite or virus in culture; conditions: Human alphaherpesvirus 1, HCLE, 24 h
HSV-1 B2006 [12] = assay: microbe, parasite or virus in culture; conditions: Human alphaherpesvirus 1, HCLE, 24 h
SARS-CoV-2 [13] = assay: microbe, parasite or virus in culture; conditions: Severe acute respiratory syndrome coronavirus 2, Calu-3, 24 h
Canine Coronavirus [14] = tested on: Canine Coronavirus
HSV-1 KOS [15] = assay: Adsorption and penetration assay, HSV-1 KOS; type: cell-based; conditions: HCLE cells
HSV-1 B2006 [16] = tested on: HSV-1 B2006
RSV A2 [17] = assay: Virus yield inhibition assay, RSV A2; type: cell-based; conditions: human respiratory syncytial virus, moi 0.1, 24 h, virus yield by plaque assay
SARS-CoV-2 [18] = tested on: SARS-CoV-2
SARS-CoV-2 [19] = type: cell-based
SARS-CoV-2 spike protein = tested on: SARS-CoV-2 spike protein; parameters: method as in ref 37 = [37]; conditions: molecular docking and dynamics simulation; cited from earlier work
RSV Line 19 = assay: microbe, parasite or virus in culture; conditions: human respiratory syncytial virus
RSV A2 [20] = assay: RSV qRT-PCR assay (viral RNA synthesis); type: cell-based, Human RSV; conditions: A549 and Hep-2 cells, A18 25 mg/mL (so in the source), 6 h, 15 h and 24 h p.i.
IL-6, IL-8, and TNF-α [21] = assay: Cytokine determination by ELISA in RSV A2-infected cells; type: cell-based; conditions: RSV A2 moi 1, 24 h, A18 25 mg/mL, BAY 11-7085 10 mg/mL (so in the source); for IL-6 production vs RSV-infected control cells: Hep-2, A549, J774A.1 cells; for TNF-α production vs RSV-infected control cells: J774A.1 macrophages; for IL-8 production vs RSV-infected control cells: epithelial cells (Hep-2, A549)
NF-κB signaling pathway = assay: NF-κB-LUC reporter gene assay in RSV A2-infected cells; type: cell-based; conditions: Hep-2, A549, J774A.1 cells infected with RSV A2 moi 1, 6 h; A18 25 μg/mL, BAY 11-7085 10 mg/mL (so in the source)
in vitro = type: cell-based; conditions: human (HEp-2, A549, HCLE, Calu-3); cat (CRFK)
[22] = tested on: SARS-CoV-2 viral main protease; parameters: method as in ref 36 = [36]; conditions: in silico finding; compounds from E. purpurea; cited from earlier work

Question: For `Oc1cc(O)c2cc(O)c(-c3ccc(O)c(O)c3)[o+]c2c1` [A18, Cyanidin chloride], which “SI (ratio CC50/EC50)” value (HSV-1 KOS [1]) is on record?
Answer: 46

Question: And the EC50 (Canine Coronavirus [2])?
Answer: 7.7 ± 0.1 mg/L

Question: What about the “infected and treated cells expressing gF” value (RSV A2 [3]; A549 cells, infected control 93%) of the same compound?
Answer: 23%

Question: And the “infected and treated cells expressing gF” value (RSV A2 [3]; HEp-2 cells, infected control 96%)?
Answer: 10%

Question: And the “IL-6 production in TLR ligand-stimulated cells” value (IL-6, IL-8, and TNF-α [4])?
Answer: significantly inhibited

Question: And the “IL-8 production in TLR ligand-stimulated cells” value (IL-6, IL-8, and TNF-α [4])?
Answer: significantly inhibited

Question: What about the “TNF-a production in TLR ligand-stimulated cells” value (IL-6, IL-8, and TNF-α [4]) of the same compound?
Answer: significantly inhibited

Question: What about the “airway hyperreactivity (AHR)” value [5] of the same compound?
Answer: alleviated airway hyperreactivity (AHR)

Question: What about the “weight loss vs untreated infected controls” value (RSV line 19 and A2; Balb/c mice, RSV A2 and line 19, A18 6 mg/kg i.p. or 3 mg/kg i.n. daily days 0-4, day 2 p.i. and entire course) of the same compound?
Answer: significantly less weight loss

Question: What about the “RSV titers in the lung vs untreated animals” value (RSV line 19 and A2; Balb/c mice, RSV A2 and line 19, A18 6 mg/kg i.p. or 3 mg/kg i.n. daily, day 4 p.i.) of the same compound?
Answer: significantly lower

Question: And the “lung histology, semiquantitative histological scoring (Inflammation Index)” value (RSV line 19 and A2; RSV A2 and line 19 infected mice, H&E-stained lungs, day 8 p.i.)?
Answer: significantly reduced RSV-induced pathological damage

Question: What about the “pulmonary IFN-g levels, treated vs not treated” value [6] of the same compound?
Answer: did not observe statistical differences

Question: What about the “pulmonary IL-4 gene expression vs untreated infected animals” value [6] of the same compound?
Answer: significantly lower levels

Question: What about the “pulmonary IL-6 gene expression vs untreated infected animals” value [6] of the same compound?
Answer: significantly lower levels

Question: What about the “pulmonary IL-17A gene expression vs untreated infected animals” value [6] of the same compound?
Answer: significantly lower levels

Question: And the “virus adsorption: virus yield after treatment during binding stage” value (shortened to “virus adsorption: virus yield”) (SARS-CoV-2 [7]; SARS-CoV-2 moi 1, 25 μg/mL of A18, 1 h at 4 °C)?
Answer: significant reduction of viral plaque formation

Question: And the “virus internalization: viral infectivity after treatment during internalization” value (“virus internalization: viral infectivity” for short) (SARS-CoV-2 [7]; SARS-CoV-2 moi 1, 25 μg/mL of A18, 2 h at 37 °C)?
Answer: did not reduce viral infectivity

Question: And the EC50 (HSV-1 KOS [8])?
Answer: 5.5 ± 0.1 mg/L

Question: What about the “SI (ratio CC50/EC50)” value (HSV-1 Field [9]) of the same compound?
Answer: 26

Question: What about the “virus adsorption: virus yield” value (RSV A2 [10]; RSV A2 moi 1, 25 μg/mL of A18, 1 h at 4 °C) of the same compound?
Answer: significant reduction of viral plaque formation

Question: And the “virus internalization: viral infectivity” value (RSV A2 [10]; RSV A2 moi 1, 25 μg/mL of A18, 2 h at 37 °C)?
Answer: did not reduce viral infectivity

Question: What about the EC50 (HSV-1 Field [11]) of the same compound?
Answer: 7.6 ± 0.05 mg/L

Question: And the EC50 (HSV-1 B2006 [12])?
Answer: 4.6 ± 0.05 mg/L

Question: What about the EC50 (SARS-CoV-2 [13]) of the same compound?
Answer: 8.9 ± 0.09 mg/L

Question: What about the “SI (ratio CC50/EC50)” value (Canine Coronavirus [14]) of the same compound?
Answer: 26

Question: And the “virus adsorption: virus yield” value (HSV-1 KOS [15]; HSV-1 KOS moi 1, 25 μg/mL of A18, 1 h at 4 °C)?
Answer: significant reduction of viral plaque formation

Question: And the “virus internalization: viral infectivity” value (HSV-1 KOS [15]; HSV-1 KOS moi 1, 25 μg/mL of A18, 2 h at 37 °C)?
Answer: did not reduce viral infectivity

Question: And the “SI (ratio CC50/EC50)” value (HSV-1 B2006 [16])?
Answer: 43

Question: And the EC50 (RSV A2 [17]; RSV A2 in A549 cells)?
Answer: 8.5 ± 0.1 mg/L

Question: And the EC50 (RSV A2 [17]; RSV A2 in HEp-2 cells)?
Answer: 3 ± 0.06 mg/L

Question: What about the “SI (ratio CC50/EC50)” value (SARS-CoV-2 [18]) of the same compound?
Answer: 23

Question: What about the “infected and treated cells expressing Spike protein” value (SARS-CoV-2 [19]) of the same compound?
Answer: 7%

Question: What about the “predicted interaction with SARS-CoV-2 spike protein” value (SARS-CoV-2 spike protein) of the same compound?
Answer: interacts with spike protein

Question: What about the EC50 (RSV Line 19; A549, 24 h) of the same compound?
Answer: 9.8 ± 0.08 mg/L

Question: And the EC50 (RSV Line 19; HEp-2, 24 h)?
Answer: 8 ± 0.1 mg/L

Question: What about the “relative contents of viral RNA vs untreated infected cells” value (RSV A2 [20]) of the same compound?
Answer: significantly reduced

Question: And the “IL-6 production vs RSV-infected control cells” value (IL-6, IL-8, and TNF-α [21])?
Answer: significantly reduced

Question: What about the “TNF-α production vs RSV-infected control cells” value (IL-6, IL-8, and TNF-α [21]) of the same compound?
Answer: significantly reduced

Question: What about the “IL-8 production vs RSV-infected control cells” value (IL-6, IL-8, and TNF-α [21]) of the same compound?
Answer: significantly reduced

Question: What about the “NF-κB activation (NF-κB-LUC luciferase activity)” value (NF-κB signaling pathway) of the same compound?
Answer: strongly inhibited

Question: And the CC50 at 24 h (in vitro)?
Answer: > 200 mg/L

Question: Which results are given for `CC(C)(C)c1ccc(S(=O)(=O)/C=C/C#N)cc1` [BAY 11-7085, reference compound]?
Answer: IL-6 production in TLR ligand-stimulated cells (IL-6, IL-8, and TNF-α [4]): significantly inhibited; IL-8 production in TLR ligand-stimulated cells (IL-6, IL-8, and TNF-α [4]): significantly inhibited; TNF-a production in TLR ligand-stimulated cells (IL-6, IL-8, and TNF-α [4]): significantly inhibited; IL-6 production vs RSV-infected control cells (IL-6, IL-8, and TNF-α [21]): significantly reduced; TNF-α production vs RSV-infected control cells (IL-6, IL-8, and TNF-α [21]): significantly reduced; IL-8 production vs RSV-infected control cells (IL-6, IL-8, and TNF-α [21]): significantly reduced; NF-κB activation (NF-κB-LUC luciferase activity) (NF-κB signaling pathway): strongly inhibited

Question: With `O=C(O)CC(=O)OC[C@H]1O[C@@H](Oc2cc3c(O)cc(O)cc3[o+]c2-c2ccc(O)c(O)c2)[C@H](O)[C@@H](O)[C@@H]1O` [Cyanidin 3-(6″-malonylglucoside)] as the compound, how does the “inhibitory potential against SARS-CoV-2 via inhibition of viral main protease” value [22] read?
Answer: good inhibitory potential

Question: With `OC[C@H]1O[C@@H](Oc2cc3c(O[C@@H]4O[C@H](CO)[C@@H](O)[C@H](O)[C@H]4O)cc(O)cc3[o+]c2-c2ccc(O)c(O)c2)[C@H](O)[C@@H](O)[C@@H]1O` [Cyanin] as the compound, how does the “inhibitory potential against SARS-CoV-2 via inhibition of viral main protease” value [22] read?
Answer: good inhibitory potential
